According to ChEMBL document CHEMBL1201861, “Genomics of Drug Sensitity in Cancer screening data, Wellcome Trust Sanger Institute”:

What was measured:
Assay in all cases: cells
Conditions in all cases: Homo sapiens
CP66-MEL = format: functional, cell-based;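 also: growth inhibition of CP66-MEL cells determined in a cell viability assay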
Description: SANGER: Inhibition of human CP66-MEL cell growth in a cell viability assay.

CTB-1 = format: functional, cell-based
Description: SANGER: Inhibition of human CTB-1 cell growth in a cell viability assay.

CW-2 = format: functional, cell-based;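 also: growth inhibition of CW-2 cells, read out by a cell viability assay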
Description: SANGER: Inhibition of human CW-2 cell growth in a cell viability assay.

D283 Med = format: functional, cell-based
Description: SANGER: Inhibition of human D-283MED cell growth in a cell viability assay.

D-502MG = format: functional, cell-based
Description: SANGER: Inhibition of human D-502MG cell growth in a cell viability assay.

DMS-114 = format: functional, cell-based
DMS-79 = format: functional, cell-based;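 also: growth inhibition measured with a cell viability assay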
Description: SANGER: Inhibition of human DMS-79 cell growth in a cell viability assay.

DU-4475 = format: functional, cell-based
Description: SANGER: Inhibition of human DU-4475 cell growth in a cell viability assay.

EC-GI-10 = format: functional, cell-based
Description: SANGER: Inhibition of human EC-GI-10 cell growth in a cell viability assay.

ES1 = format: functional, cell-based
Description: SANGER: Inhibition of human ES1 cell growth in a cell viability assay.

ES3 = format: functional, cell-based;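 also: growth inhibition of ES3 cells, read out with a cell viability assay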
Description: SANGER: Inhibition of human ES3 cell growth in a cell viability assay.

ES6 = format: functional, cell-based;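 also: growth inhibition of human ES6 cells, read out with a cell viability assay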
Description: SANGER: Inhibition of human ES6 cell growth in a cell viability assay.

ES7 = format: functional, cell-based;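 also: growth inhibition of cultured human ES7 cells, read out as cell viability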
Description: SANGER: Inhibition of human ES7 cell growth in a cell viability assay.

GB-1 = format: functional, cell-based;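 also: growth of GB-1 cells judged by a viability assay, IC50 marks the concentration inhibiting growth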
Description: SANGER: Inhibition of human GB-1 cell growth in a cell viability assay.

GI-1 = format: functional, cell-based
Description: SANGER: Inhibition of human GI-1 cell growth in a cell viability assay.

HCC2218 = format: functional, cell-based;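 also: cell viability assay read-out, with IC50 given as the concentration that inhibits growth of the cell line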
Description: SANGER: Inhibition of human HCC2218 cell growth in a cell viability assay.

HDLM-2 = format: functional, cell-based;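 also: cell viability assay measuring suppression of HDLM-2 proliferation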
Description: SANGER: Inhibition of human HDLM-2 cell growth in a cell viability assay.

HT = format: functional, cell-based
Description: SANGER: Inhibition of human HT cell growth in a cell viability assay.

IST-MES1 = format: functional, cell-based;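 also: growth inhibition of IST-MES1 cells, measured with a cell viability assay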
Description: SANGER: Inhibition of human IST-MES1 cell growth in a cell viability assay.

J-RT3-T3-5 = format: functional, cell-based;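 also: cell viability assay measuring growth inhibition of human J-RT3-T3-5 cells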
Description: SANGER: Inhibition of human J-RT3-T3-5 cell growth in a cell viability assay.

JVM-3 = format: functional, cell-based;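 also: growth inhibition of human JVM-3 cells, read out with a cell viability assay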
Description: SANGER: Inhibition of human JVM-3 cell growth in a cell viability assay.

KG-1 = format: functional, cell-based;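 also: growth inhibition of KG-1 cells, read out by a cell viability assay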
Description: SANGER: Inhibition of human KG-1 cell growth in a cell viability assay.

KP-N-YS = format: functional, cell-based;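 also: cell viability assay measuring inhibition of cell line growth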
Description: SANGER: Inhibition of human KP-N-YS cell growth in a cell viability assay.

KU812 cell line = format: functional, cell-based;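 also: growth inhibition of KU812 cells, read out with a cell viability assay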
Description: SANGER: Inhibition of human KU812 cell growth in a cell viability assay.

KURAMOCHI = format: functional, cell-based;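 also: growth inhibition of KURAMOCHI cells, read out with a cell viability assay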
Description: SANGER: Inhibition of human KURAMOCHI cell growth in a cell viability assay.

LB2241-RCC = format: functional, cell-based;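 also: cell viability assay measuring how strongly the cultured human renal carcinoma line is prevented from growing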
Description: SANGER: Inhibition of human LB2241-RCC cell growth in a cell viability assay.

LB771-HNC = format: functional, cell-based;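 also: growth inhibition of LB771-HNC human cells, read out with a cell viability assay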
Description: SANGER: Inhibition of human LB771-HNC cell growth in a cell viability assay.

LS-513 = format: functional, cell-based
Description: SANGER: Inhibition of human LS-513 cell growth in a cell viability assay.

LU-134-A = format: functional, cell-based
Description: SANGER: Inhibition of human LU-134-A cell growth in a cell viability assay.

LU-139 = format: functional, cell-based
Description: SANGER: Inhibition of human LU-139 cell growth in a cell viability assay.

MC116 = format: functional, cell-based;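 also: growth inhibition of MC116 cells, read out with a cell viability assay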
Description: SANGER: Inhibition of human MC116 cell growth in a cell viability assay.

MHH-PREB-1 = format: functional, cell-based;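 also: cell viability assay measuring inhibition of proliferation of human MHH-PREB-1 cells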
Description: SANGER: Inhibition of human MHH-PREB-1 cell growth in a cell viability assay.

MLMA = format: functional, cell-based;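 also: growth inhibition of MLMA cells (human), determined through a cell viability readout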
Description: SANGER: Inhibition of human MLMA cell growth in a cell viability assay.

MOLT-4 = format: functional, cell-based;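 also: growth inhibition of MOLT-4 cells, determined with a cell viability readout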
Description: SANGER: Inhibition of human MOLT-4 cell growth in a cell viability assay.

MSTO-211H = format: functional, cell-based
Description: SANGER: Inhibition of human MSTO-211H cell growth in a cell viability assay.

MV4-11 = format: functional, cell-based, MV-4-11;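 also: cell viability readout measuring growth inhibition of human MV-4-11 cells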
Description: SANGER: Inhibition of human MV-4-11 cell growth in a cell viability assay.

MZ2-MEL = format: functional, cell-based;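 also: growth inhibition of MZ2-MEL cells read out with a cell viability assay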
Description: SANGER: Inhibition of human MZ2-MEL cell growth in a cell viability assay.

NB13 = format: functional, cell-based;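 also: cell viability readout measuring growth inhibition of human NB13 cells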
Description: SANGER: Inhibition of human NB13 cell growth in a cell viability assay.

NB69 = format: functional, cell-based;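 also: growth inhibition of NB69 cells, determined by a cell viability assay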
Description: SANGER: Inhibition of human NB69 cell growth in a cell viability assay.

NCI-H1299 = format: functional, cell-based;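 also: growth inhibition of human NCI-H1299 cells, read out by a cell viability assay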
Description: SANGER: Inhibition of human NCI-H1299 cell growth in a cell viability assay.

NCI-H1770 = format: functional, cell-based;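 also: growth inhibition of NCI-H1770 cells determined with a viability readout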
Description: SANGER: Inhibition of human NCI-H1770 cell growth in a cell viability assay.

NCI-H446 = format: functional, cell-based;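 also: growth inhibition of NCI-H446 cells determined by a cell viability assay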
Description: SANGER: Inhibition of human NCI-H446 cell growth in a cell viability assay.

NCI-H510A = format: functional, cell-based;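 also: growth inhibition of NCI-H510A cells, read out with a cell viability assay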
Description: SANGER: Inhibition of human NCI-H510A cell growth in a cell viability assay.

SNU1 = format: functional, cell-based;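 also: growth inhibition of human NCI-SNU-1 cells, measured with a cell viability assay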
Description: SANGER: Inhibition of human NCI-SNU-1 cell growth in a cell viability assay.

NH-12 = format: functional, cell-based;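 also: growth inhibition of NH-12 cells, read out with a cell viability assay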
Description: SANGER: Inhibition of human NH-12 cell growth in a cell viability assay.

OCI-AML2 = format: functional, cell-based;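 also: growth inhibition of OCI-AML2 cells, read out with a cell viability assay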
Description: SANGER: Inhibition of human OCI-AML2 cell growth in a cell viability assay.

OMC-1 = format: functional, cell-based;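 also: growth inhibition of the OMC-1 cell line, measured by a cell viability assay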
Description: SANGER: Inhibition of human OMC-1 cell growth in a cell viability assay.

ONS-76 = format: functional, cell-based;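 also: growth inhibition of human ONS-76 cells, read out with a cell viability assay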
Description: SANGER: Inhibition of human ONS-76 cell growth in a cell viability assay.

RPMI-8226 = format: functional, cell-based
Description: SANGER: Inhibition of human RPMI-8226 cell growth in a cell viability assay.

Ramos-2G6-4C10 = format: functional, cell-based;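 also: growth inhibition of the cell line, measured by a cell viability read-out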
Description: SANGER: Inhibition of human Ramos-2G6-4C10 cell growth in a cell viability assay.

SF-539 = format: functional, cell-based;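 also: Read-out is a cell viability assay, with IC50 reflecting inhibition of cell growth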
Description: SANGER: Inhibition of human SF539 cell growth in a cell viability assay.

SK-MEL-1 = format: functional, cell-based;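 also: growth inhibition of human SK-MEL-1 cells, read out by a cell viability assay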
Description: SANGER: Inhibition of human SK-MEL-1 cell growth in a cell viability assay.

SK-N-FI = format: functional, cell-based;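 also: cell viability assay measuring growth inhibition of human SK-N-FI cells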
Description: SANGER: Inhibition of human SK-N-FI cell growth in a cell viability assay.

SNB-75 = format: functional, cell-based;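 also: cell viability assay measuring growth inhibition of human SNB-75 cells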
Description: SANGER: Inhibition of human SNB75 cell growth in a cell viability assay.

SW684 = format: functional, cell-based;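 also: growth inhibition of human SW684 cells, measured by a cell viability assay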
Description: SANGER: Inhibition of human SW684 cell growth in a cell viability assay.

SW 954 = format: functional, cell-based;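 also: growth inhibition of SW954 human cancer cells, read out as cell viability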
Description: SANGER: Inhibition of human SW954 cell growth in a cell viability assay.

SW982 = format: functional, cell-based;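 also: growth inhibition of SW982 cells, read out with a cell viability assay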
Description: SANGER: Inhibition of human SW982 cell growth in a cell viability assay.

697 = format: functional, cell-based
Description: SANGER: Inhibition of human 697 cell growth in a cell viability assay.

ALL-PO = format: functional, cell-based;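 also: growth inhibition of ALL-PO cells, read out by a cell viability assay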
Description: SANGER: Inhibition of human ALL-PO cell growth in a cell viability assay.

ATN-1 = format: functional, cell-based;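 also: growth inhibition of human ATN-1 cells, read out with a cell viability assay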
Description: SANGER: Inhibition of human ATN-1 cell growth in a cell viability assay.

BB30-HNC = format: functional, cell-based;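 also: growth inhibition of the cultured cell line, read out by a cell viability assay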
Description: SANGER: Inhibition of human BB30-HNC cell growth in a cell viability assay.

BB65-RCC = format: functional, cell-based;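 also: growth inhibition of the cell line, measured with a cell viability assay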
Description: SANGER: Inhibition of human BB65-RCC cell growth in a cell viability assay.

Becker = format: functional, cell-based;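 also: growth inhibition of Becker cells, read out with a cell viability assay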
Description: SANGER: Inhibition of human Becker cell growth in a cell viability assay.

TGBC24TKB = format: functional, cell-based;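 also: growth inhibition of human TGBC24TKB cells, read out with a cell viability assay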
Description: SANGER: Inhibition of human TGBC24TKB cell growth in a cell viability assay.

U-266 = format: functional, cell-based
Description: SANGER: Inhibition of human U-266 cell growth in a cell viability assay.

SMILES: C/C(O)=C(\C#N)C(=O)Nc1cc(Br)ccc1Br
- IC50 (CP66-MEL): > 16000 nM
- IC50 (CTB-1): > 16000 nM
- IC50 (CW-2): > 16000 nM
- IC50 (D283 Med): > 16000 nM
- IC50 (D-502MG): > 16000 nM
- IC50 (DMS-114): > 16000 nM
- IC50 (DMS-79): > 16000 nM
- IC50 (DU-4475): > 16000 nM
- IC50 (EC-GI-10): > 16000 nM
- IC50 (ES1): > 16000 nM
- IC50 (ES3): > 16000 nM
- IC50 (ES6): > 16000 nM
- IC50 (ES7): > 16000 nM
- IC50 (GB-1): > 16000 nM
- IC50 (GI-1): > 16000 nM
- IC50 (HCC2218): > 16000 nM
- IC50 (HDLM-2): > 16000 nM
- IC50 (HT): > 16000 nM
- IC50 (IST-MES1): > 16000 nM
- IC50 (J-RT3-T3-5): > 16000 nM
- IC50 (JVM-3): > 16000 nM
- IC50 (KG-1): > 16000 nM
- IC50 (KP-N-YS): > 16000 nM
- IC50 (KU812 cell line): > 16000 nM
- IC50 (KURAMOCHI): > 16000 nM
- IC50 (LB2241-RCC): > 16000 nM
- IC50 (LB771-HNC): > 16000 nM
- IC50 (LS-513): > 16000 nM
- IC50 (LU-134-A): > 16000 nM
- IC50 (LU-139): > 16000 nM
- IC50 (MC116): > 16000 nM
- IC50 (MHH-PREB-1): > 16000 nM
- IC50 (MLMA): > 16000 nM
- IC50 (MOLT-4): > 16000 nM
- IC50 (MSTO-211H): > 16000 nM
- IC50 (MV4-11): > 16000 nM
- IC50 (MZ2-MEL): > 16000 nM
- IC50 (NB13): > 16000 nM
- IC50 (NB69): > 16000 nM
- IC50 (NCI-H1299): > 16000 nM
- IC50 (NCI-H1770): > 16000 nM
- IC50 (NCI-H446): > 16000 nM
- IC50 (NCI-H510A): > 16000 nM
- IC50 (SNU1): > 16000 nM
- IC50 (NH-12): > 16000 nM
- IC50 (OCI-AML2): > 16000 nM
- IC50 (OMC-1): > 16000 nM
- IC50 (ONS-76): > 16000 nM
- IC50 (RPMI-8226): > 16000 nM
- IC50 (Ramos-2G6-4C10): > 16000 nM
- IC50 (SF-539): > 16000 nM
- IC50 (SK-MEL-1): > 16000 nM
- IC50 (SK-N-FI): > 16000 nM
- IC50 (SNB-75): > 16000 nM
- IC50 (SW684): > 16000 nM
- IC50 (SW 954): > 16000 nM
- IC50 (SW982): > 16000 nM
- IC50 697: > 16000 nM
- IC50 (ALL-PO): > 16000 nM
- IC50 (ATN-1): > 16000 nM
- IC50 (BB30-HNC): > 16000 nM
- IC50 (BB65-RCC): > 16000 nM
- IC50 (Becker): > 16000 nM
- IC50 (TGBC24TKB): > 16000 nM
- IC50 (U-266): > 16000 nM

SMILES: O=c1[nH]c2ccccc2n1C1CCN(Cc2ccc(-c3nc4cc5[nH]cnc5cc4nc3-c3ccccc3)cc2)CC1
- IC50 (CP66-MEL): > 2560 nM
- IC50 (CTB-1): > 2560 nM
- IC50 (CW-2): > 2560 nM
- IC50 (D283 Med): > 2560 nM
- IC50 (D-502MG): > 2560 nM
- IC50 (DMS-114): > 2560 nM
- IC50 (DMS-79): > 2560 nM
- IC50 (DU-4475): > 2560 nM
- IC50 (EC-GI-10): > 2560 nM
- IC50 (ES1): > 2560 nM
- IC50 (ES3): > 2560 nM
- IC50 (ES6): > 2560 nM
- IC50 (ES7): 1350 nM
- IC50 (GB-1): > 2560 nM
- IC50 (GI-1): > 2560 nM
- IC50 (HCC2218): > 2560 nM
- IC50 (HDLM-2): > 2560 nM
- IC50 (HT): > 2560 nM
- IC50 (IST-MES1): > 2560 nM
- IC50 (J-RT3-T3-5): > 2560 nM
- IC50 (JVM-3): > 2560 nM
- IC50 (KG-1): > 2560 nM
- IC50 (KP-N-YS): > 2560 nM
- IC50 (KU812 cell line): 1730 nM
- IC50 (KURAMOCHI): 2310 nM
- IC50 (LB2241-RCC): > 2560 nM
- IC50 (LB771-HNC): > 2560 nM
- IC50 (LS-513): > 2560 nM
- IC50 (LU-134-A): > 2560 nM
- IC50 (LU-139): > 2560 nM
- IC50 (MC116): > 2560 nM
- IC50 (MHH-PREB-1): > 2560 nM
- IC50 (MLMA): > 2560 nM
- IC50 (MOLT-4): > 2560 nM
- IC50 (MSTO-211H): > 2560 nM
- IC50 (MV4-11): > 2560 nM
- IC50 (MZ2-MEL): > 2560 nM
- IC50 (NB13): > 2560 nM
- IC50 (NB69): > 2560 nM
- IC50 (NCI-H1299): > 2560 nM
- IC50 (NCI-H1770): > 2560 nM
- IC50 (NCI-H446): > 2560 nM
- IC50 (NCI-H510A): > 2560 nM
- IC50 (SNU1): > 2560 nM
- IC50 (NH-12): 609 nM
- IC50 (OCI-AML2): > 2560 nM
- IC50 (OMC-1): > 2560 nM
- IC50 (ONS-76): > 2560 nM
- IC50 (RPMI-8226): > 2560 nM
- IC50 (Ramos-2G6-4C10): > 2560 nM
- IC50 (SF-539): > 2560 nM
- IC50 (SK-MEL-1): > 2560 nM
- IC50 (SK-N-FI): > 2560 nM
- IC50 (SNB-75): > 2560 nM
- IC50 (SW684): > 2560 nM
- IC50 (SW 954): > 2560 nM
- IC50 (SW982): > 2560 nM
- IC50 697: > 2560 nM
- IC50 (ALL-PO): > 2560 nM
- IC50 (ATN-1): > 2560 nM
- IC50 (BB30-HNC): > 2560 nM
- IC50 (BB65-RCC): > 2560 nM
- IC50 (Becker): > 2560 nM
- IC50 (TGBC24TKB): > 2560 nM
- IC50 (U-266): > 2560 nM
